These results are taken from US9850227B2 (YUHAN CORPORATION, priority 2011, dated 2017).

Structures can show the parent of a compound that is named as a salt.

The assay deals with T1, human 5-HT4(a) (Homo sapiens, UniProt Q13639).
T1 construct: host or cells: GeneBIAzer HTR4-CRE-bla CHO-K1 cells
T1 sequence (Q13639 1-387 isoform Q13639-2): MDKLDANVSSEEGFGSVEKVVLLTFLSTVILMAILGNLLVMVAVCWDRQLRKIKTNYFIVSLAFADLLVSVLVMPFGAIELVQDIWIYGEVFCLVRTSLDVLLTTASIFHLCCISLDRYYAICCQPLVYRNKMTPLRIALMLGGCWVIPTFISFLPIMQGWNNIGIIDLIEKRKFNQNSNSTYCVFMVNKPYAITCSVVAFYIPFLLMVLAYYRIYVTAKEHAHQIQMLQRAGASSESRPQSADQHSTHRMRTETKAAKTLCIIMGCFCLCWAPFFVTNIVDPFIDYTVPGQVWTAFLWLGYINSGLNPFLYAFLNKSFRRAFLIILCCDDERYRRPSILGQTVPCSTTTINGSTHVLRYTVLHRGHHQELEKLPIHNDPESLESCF
Description: Evaluation of agonistic activity in CHO-K1 cells expressing human 5-HT4(a) (GeneBIAzer HTR4-CRE-bla CHO-K1 cells, beta-lactamase fluorescence ratio, EC50 from 8 concentrations). The class given is cell-based. On the procedure: Evaluation of Agonistic Activity in CHO-K1 Cells Expressing Human 5-HT4(a)
As CHO-K1 cells stably expressing human 5-HT4(a), we used the GeneBIAzer HTR4-CRE-bla CHO-K1 cells (Invitrogen Corp.). The cells were cultured, under the condition of 37° C. and 5% CO2, in a DMEM supplemented with 10% fetal bovine serum (FBS), 25 mM HEPES (pH7.4), 600 μg/ml hygromycin B, 0.1 mM non-essential amino acids, 100 unit/ml penicillin and 100 μg/ml streptomycin. Subcultures were performed three times per one week, each being at less than 80% confluence. At the previous day before treating test compounds, the cells were collected using 0.5% trypsin/EDTA and then diluted with a DMEM supplemented with 1% FBS, 25 mM HEPES, and 0.1 mM non-essential amino acids into 3.125×10^5 cells/ml. 32 μl of the diluted cells were added into 384-well plate (10^4 cells per well) and then incubated overnight. After the overnight culture, 8 μl of the medium having 1% of DMSO was added into the cell-free control well and the non-stimulating control well, respectively. 8 μl of the respective test compound dilutions (which had been prepared by diluting by 100-times with the medium as mentioned in the above) having 1% of DMSO were added to the respective remaining wells. After being cultured in the incubator for 5 hours, the wells of the 384-plate were treated with the substrate solution (8 μl per well) prepared according to the vendor's instruction (i.e., Invitrogen's instruction), and then incubated in the dark room for additional two hours. Agonistic activities on 5-HT4 receptor were evaluated, on the basis of fluorescence values of the cleavage-products by beta-lactamase. After exciting to 410 nm of wavelength using a fluorescence detector (Genios Pro), we measured the fluorescence values at two emission wavelengths (first wavelength: 465 nm, second wavelength: 535 nm). Data were analyzed on the basis of the ratio of fluorescence intensities of each well at the respective wavelengths. Each EC50 value was calculated by non-linear regression analysis using the “GraphPad Prism” program, based on the activities according to 8-different concentrations of the test compounds.
The EC50 is the midpoint of the concentration-response curve. As to `CCCc1cc(N2CCC[C@@H](N)C2)nc(Nc2ccc(N)c(C#N)c2)n1` [Example 261, (R)-2-amino-5-{[4-(3-aminopiperidin-1-yl)-6-propylpyrimidin-2-yl]amino}benzonitrile], the half-maximal effective concentration (EC50) is 0.105 nM. On to `CCCc1cc(N2CCC[C@@H](NC(=O)CO)C2)nc(Nc2ccc(C)c(C(F)(F)F)c2)n1` [Example 254, (R)-2-hydroxy-N-(1-{2-[4-methyl-3-(trifluoromethyl)phenylamino]-6-propylpyrimidin-4-yl}piperidin-3-yl)acetamide], for which the 50% effective concentration (EC50) stood at 0.038 nM. Take `CCCc1cc(N2CCCCC2CCO)nc(Nc2ccc(C)c(Cl)c2)n1` (centres unmarked) [Example 140, 2-{1-[2-(3-chloro-4-methylphenylamino}-6-propylpyrimidin-4-yl]piperidin-2-yl}ethanol]: the EC50 was found to be 0.28 nM. Regarding `CCCc1cc(N2CCNC[C@H]2C)nc(Nc2ccc(N)c(C(F)(F)F)c2)n1` [Example 124, (R)-N^1-[4-(2-methylpiperazin-1-yl)-6-propylpyrimidin-2-yl]-3-(trifluoromethyl)benzene-1,4-diamine], the concentration giving a half-maximal response (EC50) was found to be 0.028 nM. In the case of `CCCc1cc(N2CCC[C@@H](NCCCSC)C2)nc(Nc2ccc(C)c(C#N)c2)n1` [Example 216, (R)-2-methyl-5-{4-[3-(3-methylthiopropylamino)piperidin-1-yl]-6-propylpyrimidin-2-ylamino}benzonitrile], the half-maximal effective concentration (EC50) worked out at 0.016 nM. Take `CCCc1cc(N2CCC[C@@H](NCC3CC3)C2)nc(Nc2ccc(C)c(C#N)c2)n1` [Example 217, (R)-5-{4-[3-(cyclopropylmethylamino)piperidin-1-yl]-6-propylpyrimidin-2-ylamino}-2-methylbenzonitrile]: the EC50 is 0.013 nM.

As to `CCCc1cc(N2CCCC(NC(C)=O)C2)nc(Nc2ccc(N)c([N+](=O)[O-])c2)n1` (centres unmarked) [Example 275, N-{1-[2-(4-amino-3-nitrophenylamino)-6-propylpyrimidin-4-yl]piperidin-3-yl}acetamide], the EC50 came out at 0.0034 nM. As for `CCCc1cc(N2CCCC(NCC)C2)nc(Nc2ccc(C)c(C#N)c2)n1` (centres unmarked) [Example 297, 5-[4-(3-ethylaminopiperidin-1-yl)-6-propylpyrimidin-2-ylamino]-2-methylbenzonitrile dihydrochloride], the EC50 turned out to be 0.0024 nM. In the case of `CCCc1cc(N2CCC[C@@H](NCC3CC3)C2)nc(Nc2ccc(F)c(N)c2)n1` [Example 227, (R)—N^1-{4-[3-(cyclopropylmethylamino)piperidin-1-yl]-6-propylpyrimidin-2-yl}-4-fluorobenzene-1,3-diamine], the half-maximal effective concentration (EC50) came out at 0.017 nM. Regarding `CCCc1cc(N2CCC[C@@H](NC)C2)nc(Nc2ccc(N)c([N+](=O)[O-])c2)n1` [Example 321, (R)—N^1-{4-[3-(methylamino)piperidin-1-yl]-6-propylpyrimidin-2-yl}-3-nitrobenzene-1,4-diamine dihydrochloride], the 50% effective concentration (EC50) was found to be 0.0031 nM.

For the molecule `CCCc1cc(N2CCC[C@@H](NCC3CC3)C2)nc(Nc2ccc(N)c(C(F)(F)F)c2)n1` [Example 230, (R)—N^1-{4-[3-(cyclopropylmethylamino)piperidin-1-yl]-6-propylpyrimidin-2-yl}-3-(trifluoromethyl)benzene-1,4-diamine], the half-maximal effective concentration (EC50) is 0.0046 nM.

For the molecule `CCCc1cc(N2CCC[C@@H](N)C2)nc(Nc2ccc3cc[nH]c3c2)n1` [Example 264, (R)—N-[4-(3-aminopiperidin-1-yl)-6-propylpyrimidin-2-yl]-1H-indol-6-amine], the EC50 was found to be 0.328 nM. Consider `CCCc1cc(N2CCCCC2CCO)nc(Nc2cccc(SC)c2)n1` (centres unmarked) [Example 25, 2-(1-{2-[3-(methylthio)phenylamino]-6-propylpyrimidin-4-yl}piperidin-2-yl)ethanol], for which the EC50 was found to be 0.073 nM. On to `CCCc1cc(N2CCC[C@@H](N)C2)nc(Nc2ccc(N)c(C(F)(F)F)c2)n1` [Example 257, (R)—N^1-[4-(3-aminopiperidin-1-yl)-6-propylpyrimidin-2-yl]-3-(trifluoromethyl)benzene-1,4-diamine], for which the EC50 was 0.042 nM. Turning to `CCCc1cc(N2CCC[C@@H](N)C2)nc(Nc2cc(N)cc(C#N)c2)n1` [Example 260, (R)-3-amino-5-{[4-(3-aminopiperidin-1-yl)-6-propylpyrimidin-2-yl]amino}benzonitrile], the concentration for a half-maximal effect (EC50) was 0.0075 nM. For `CCCc1cc(N2CCCCC2CCO)nc(Nc2ccc(N)c(C(F)(F)F)c2)n1` (centres unmarked) [Example 175, 2-{1-[2-(4-amino-3-trifluoromethylphenylamino)-6-propylpyrimidin-4-yl]piperidin-2-yl}ethanol], the EC50 was found to be 0.035 nM.

`CCCCCN[C@@H]1CCCN(c2cc(CCCC)nc(Nc3ccc(C)c(C#N)c3)n2)C1` [Example 301, (R)-5-({4-butyl-6-[3-(pentylamino)piperidin-1-yl]pyrimidin-2-yl}amino)-2-methylbenzonitrile]: the 50% effective concentration (EC50) amounted to 0.019 nM.

Consider `CCCc1cc(N2CCC[C@@H](NC(C)C)C2)nc(Nc2ccc(C)c(C#N)c2)n1` [Example 212, (R)-5-{4-[3-(isopropylamino)piperidin-1-yl]-6-propylpyrimidin-2-ylamino}-2-methylbenzonitrile], for which the 50% effective concentration (EC50) is 0.1 nM. As for `CCCc1cc(N2CCC[C@@H](N)C2)nc(Nc2ccc(C)c(C(F)(F)F)c2)n1` [Example 263, (R)-4-(3-aminopiperidin-1-yl)-N-[4-methyl-3-(trifluoromethyl)phenyl]-6-propylpyrimidin-2-amine], the half-maximal effective concentration (EC50) stood at 0.0072 nM. For `CCCc1cc(N2CCCC3CCCCC32)nc(Nc2ccc3cc[nH]c3c2)n1` (centres unmarked) [Example 73, N-[4-(octahydroquinolin-1(2H)-yl)-6-propylpyrimidin-2-yl]-1H-indol-6-amine] the value was 0.24 nM; for `CCCc1cc(N2CCCCC2CC)nc(Nc2ccc(Cl)c([N+](=O)[O-])c2)n1` (centres unmarked) [Example 101, N-(4-chloro-3-nitrophenyl)-4-(2-ethylpiperidin-1-yl)-6-propylpyrimidin-2-amine], 0.24 nM.

Take `CCCc1cc(N2CCCCC2CC)nc(Nc2cc(OC)ccc2C)n1` (centres unmarked) [Example 112, 4-(2-ethylpiperidin-1-yl)-N-(5-methoxy-2-methylphenyl)-6-propylpyrimidin-2-amine]: the EC50 was determined as 0.37 nM. Take `CCCc1cc(N2CCCCC2CCO)nc(Nc2ccc(C)c(C#N)c2)n1` (centres unmarked) [Example 177, 5-{4-[2-(2-hydroxyethyl)piperidin-1-yl]-6-propylpyrimidin-2-ylamino}-2-methylbenzonitrile]: the EC50 is 0.049 nM. Consider `CCCCc1cc(N2CCC[C@@H](NC(C)=O)C2)nc(Nc2ccc(Cl)c([N+](=O)[O-])c2)n1` [Example 235, (R)—N-{1-[6-butyl-2-(4-chloro-3-nitrophenylamino)pyrimidin-4-yl]piperidin-3-yl}acetamide], for which the half-maximal effective concentration (EC50) is 0.012 nM. As for `CCCc1cc(N2CCC[C@@H](NCC)C2)nc(Nc2ccc(C)c(C#N)c2)n1` [Example 205, (R)-5-{4-[3-(ethylamino)piperidin-1-yl]-6-propylpyrimidin-2-ylamino}-2-methylbenzonitrile], the EC50 is 0.008 nM. As to `CCCc1cc(N2CCCCC2CCO)nc(Nc2ccc3c(C)cc(=O)oc3c2)n1` (centres unmarked) [Example 146, 7-{4-[2-(2-hydroxyethyl)piperidin-1-yl]-6-propylpyrimidin-2-ylamino}-4-methyl-2H-chromen-2-one], the concentration giving a half-maximal response (EC50) came out at 0.27 nM. As for `CCCc1cc(N2CCCCC2CC)nc(Nc2ccc3cc[nH]c3c2)n1` (centres unmarked) [Example 78, N-[4-(2-ethylpiperidin-1-yl)-6-propylpyrimidin-2-yl]-1H-indol-6-amine], the figure is 0.12 nM; as for `CCCCc1cc(N2CCC[C@@H](NC(C)=O)C2)nc(Nc2ccc(F)c(C(F)(F)F)c2)n1` [Example 239, (R)—N-{1-[6-butyl-2-(4-fluoro-3-trifluoromethylphenylamino)pyrimidin-4-yl]piperidin-3-yl}acetamide], 0.017 nM; as for `CCCCc1cc(N2CCC[C@@H](N)C2)nc(Nc2ccc(N)c(C(F)(F)F)c2)n1` [Example 340, (R)—N^1-[4-(3-aminopiperidin-1-yl)-6-butylpyrimidin-2-yl]-3-(trifluoromethyl)benzene-1,4-diamine], 0.112 nM. As for `CCCCc1cc(N2CCC[C@@H](N)C2)nc(Nc2ccc(N)c([N+](=O)[O-])c2)n1` [Example 337, (R)—N^1-[4-(3-aminopiperidin-1-yl)-6-butylpyrimidin-2-yl]-3-nitrobenzene-1,4-diamine dihydrochloride], the concentration for a half-maximal effect (EC50) was determined as 0.006 nM. With `CCCc1cc(N2CCC[C@@H](N)C2)nc(Nc2ccc(F)c(N)c2)n1` [Example 259, (R)—N^1-[4-(3-aminopiperidin-1-yl)-6-propylpyrimidin-2-yl]-4-fluorobenzene-1,3-diamine], the EC50 was 0.084 nM. As for `CCCN[C@@H]1CCCN(c2cc(CCC)nc(Nc3ccc(C)c(C#N)c3)n2)C1` [Example 206, (R)-5-{4-[3-(propylamino)piperidin-1-yl]-6-propylpyrimidin-2-ylamino}-2-methylbenzonitrile], the figure is 0.0087 nM.
